# Experimental data: PMC3527734, “Peripheral injections of melanin-concentrating hormone receptor 1 antagonist S38151 decrease food intake and body weight in rodent obesity models” (Frontiers in Endocrinology, 2012)
# Where two headings read alike, the source gives them in different places. Where a SMILES comes first, the peptide text is derived from it.
# Tests used:
# ob/ob mice = assay: daily i.p. S38151 in ob/ob mice; assay type: in vivo, mouse
# Experimental: In these studies, 13-week-old female C57BL/6J, ob/ob, and MCH1-KO mice were used. The mice were maintained on a 12-h light/dark cycle (lights on at 07:30 and off at 19:30) at 22 ± 3°C, and supplied with food pellets (6 mm diameter A03, UAR Laboratory chow, Epinay Villemuisson France) and tap water ad libitum. To induce obesity in C57BL/6J (creating diet-induced obese, or DIO, mice), mice were fed a high-fat diet (60 kcal% fat, 20 kcal% protein, 20 kcal% carbohydrate, ref D12492 from Research Diets, New Brunswick, NJ08901, USA) for 8 weeks starting at 4 weeks of age. In these experiments, DIO mice, ob/ob mice, and MCH^−/−1 mice were individually housed in a modular chamber that was placed on an activity platform to concurrently measure the food intake, water intake, and activity of the mice (ADDENFI, Les Cordeliers, Paris, France). For at least 2 weeks before experimentation, mice were habituated to a diet of 6 mm diameter food pellets of the following composition: 67.5% food flour, 26.5% sucrose, 5% gum tragacanth, 1.25% magnesium stearate (A03 UAR, Orge, France), and to i.p. injection. After this habituation period, food intake, drink intake, and body weight were measured for 3 consecutive days. The mice were randomized into three groups based on their food and water intake over the three preceding 24-h periods, and on their body weight. Next, the quantity of food eaten over each 24-h period during the 5 days of i.p. treatment with S38151 [10 and 30 mg/kg/day (7 and 20 μmol/kg/day)] or vehicle was determined and corrected for spillage.
# Figure 8 The effects of repeated daily S38151 injection on food and water intake, body weight, and motility in ob/ob mice. Genetically modified ob/ob mice were administered S38151 (10 and 30 mg/kg, i.p.) or vehicle (normal saline i.p.) for 6 consecutive days. Results are expressed as mean ± SEM (n = 8 mice per group). White squares for controls, dark squares for 10 mg/kg, and dark triangles for 30 mg/kg.
# [1] = stability in TRIS buffer pH 7.4; assay type: physicochemical; details: pH 7.4, Tris buffer pH 7.4, 40 μM, LC-MS/MS, representative of three experiments, read-out: % S38151 remaining
# Experimental: First, S38151 was incubated for 16 h at 4°C and 37°C in mouse plasma or in TRIS buffer (pH 7.4). Next, plasma proteins were precipitated with two volumes of acetonitrile. After centrifugation and dilution with a water/acetonitrile mixture (50/50 v/v), the supernatant was injected onto a triple quadripole mass spectrometer (Ultima, Micromass WATERS Corporation, Milford, USA). The liquid chromatographic system consisted of an Agilent 1100 analytic pump (Agilent, Santa Clara, USA) equipped with an Alpha Mos CTC autosampler (Alpha Mos, Toulouse, France). Mass detection was performed using the m/z transition 743.5 > 163, in positive electrospray. A second stability study was performed at a lower concentration (1 μM) and for 4 h, with the following sampling times: 0, 15, 45, 90, and 240 min. At each sampling time, 50 μL of plasma were precipitated with two volumes of acetonitrile, and after centrifugation were directly injected onto the LC-MS/MS system. The same treatment was used for the buffer samples.
# Figure 2 Studies regarding the stability of S38151. A solution of S38151 (40 μM) was incubated with either Tris buffer, pH 7.4 (hatched bars), or mouse plasma samples (dark bars) for 16 h at 4°C or 37°C. The samples were analyzed using liquid chromatography coupled to mass spectrometry. Experiments were repeated three times. The chart presented is representative of the experimental results. […]
# Zucker fa/fa rats = assay: daily i.c.v. administration, feeding, drinking, body weight and motility; assay type: in vivo, rat
# From the text: Wistar and Zucker fa/fa rats were anesthetized with Forène (Abbott Laboratories, Queenborough, UK), and a stainless steel guide cannula (Plastic Products Co, Roanoke, Va, USA) was stereotaxically implanted into the right lateral ventricle at the following coordinates relative to the bregma: AP −0.8 mm, L = −1.2 mm, and V = −3.5 mm. After a 7-day recovery period, during which the animals were handled each day to minimize non-specific stress, they were lightly anesthetized with Forène. Human/mouse/rat MCH (1 μg in a volume of 2.5 μ L, Bachem, Voisins-le-Bretonneux, France) or an equivalent volume of artificial cerebrospinal fluid (CSF) was then injected through the intraventricular cannula. Immediately after injection, the animals quickly recovered and were returned to their home cages. Only those animals responding within 2 h with a robust increase in food intake, indicating correct cannula placement, were used in the experiments described below. Two days after MCH injection, the rats were randomly assigned to different groups and studied in one of the following protocols.
# The TSE Drinking and Feeding Monitor system was used to analyze ingestive behavior in these experiments (TSE Technical & Scientific Equipment GmbH, Bad Homburg, Germany). The rats' motility was also determined in these experiments using the MoTil® system (TSE). Zucker fa/fa rats were placed individually into plastic cages to which were attached both a feeding and a drinking sensor. The animals were habituated to normal food (A03 UAR, Orge, France) and water for at least 2 weeks before experimentation. […] The injections were repeated daily for a total of 7 days. After 7 days, the injections were stopped and each measured parameter was followed during a 5-day washout period.
# Figure 4 The effects of repeated daily central administration of S38151 on food intake, water intake, body weight, and motility in Zucker fa/fa rats. One hour prior the beginning of the dark phase, different doses of S38151 (5, 10, or 20 nmol/kg) or vehicle were injected (i.c.v.) once daily for 7 days, followed by a washout period of 5 days. […] Repeated measures Two-Way ANOVA (treatment × time) was performed with a repeated measure of the factor “time.” Significant treatment and interaction effects are shown on the graph. ^+P < 0.05; ^++P < 0.01; ^+++P < 0.001.
smiles,measurement,setting,value
"CSCC[C@@H]1NC(=O)[C@@H](NC(=O)c2ccc(NC(=N)N)cc2)CSSC[C@@H](C(=O)N[C@@H](Cc2c[nH]c3ccccc23)C(=O)O)NC(=O)[C@@H]2CCCN2C(=O)[C@H](CCCNC(=N)N)NC(=O)[C@H](Cc2ccc(O)cc2)NC(=O)[C@H](C(C)C)NC(=O)[C@H](CCCNC(=N)N)NC(=O)[C@H](CC(C)C)NC1=O [S38151, p-guanidinobenzoyl-(Des-Gly10)-MCH (7–17)] (HELM PEPTIDE1{[N=C(N)Nc1ccc(C(=O)[*:2])cc1].C.M.L.R.V.Y.R.P.C.W}$PEPTIDE1,PEPTIDE1,2:R3-10:R3$$$V2.0; C-terminus assumed)",glycemia and insulinemia,"ob/ob mice; S38151 30 mg/kg i.p., day 6, data not shown",significant reductions
same,body weight,"ob/ob mice; S38151 10 and 30 mg/kg i.p. daily for 6 days, 30 mg/kg significant at days 1, 4, 5, 6",dose-dependent reduction
same,water intake,"ob/ob mice; S38151 10 and 30 mg/kg i.p. daily for 6 days, same profile as food intake",did not reach statistical significance
same,food intake,"ob/ob mice; S38151 10 and 30 mg/kg i.p. daily for 6 days, significant from day 3 only at 30 mg/kg, n = 8",dose-dependent inhibition
same,"remaining at 16 h, 40 μM",[1]; 4°C,79%
same,"remaining at 16 h, 40 μM",[1]; 37°C,32%
same,body weight gain during the washout period,Zucker fa/fa rats; 5-day washout after 10 nmol/kg S38151 i.c.v. for 7 days,remained significantly less than control values
same,motility during the washout period,Zucker fa/fa rats; 5-day washout after 20 nmol/kg S38151 i.c.v. for 7 days,remained significantly elevated
same,food intake,"Zucker fa/fa rats; S38151 5, 10, 20 nmol/kg i.c.v. daily for 7 days, significant only at 20 nmol/kg, n = 8",dose-dependent inhibition
same,motility,Zucker fa/fa rats; S38151 10 and 20 nmol/kg i.c.v. daily for 7 days,significantly increased
same,body weight gain,"Zucker fa/fa rats; S38151 10 and 20 nmol/kg i.c.v. daily for 7 days, compared with control rats",dose-dependent reduction
same,water intake,"Zucker fa/fa rats; S38151 i.c.v. daily for 7 days, all injected doses except the 5 nmol dose",significantly inhibited
